Source: publication PMC7469199, “Immunosuppressive Activities of Novel PLA2 Inhibitors from Xenorhabdus hominickii, an Entomopathogenic Bacterium” (Insects, 2020)
Read-outs that look alike come from different tables or passages of the source.

Columns and labels:
[1] = system: S. exigua larvae; test: Effect on pathogenicity of X. hominickii (co-injection); assay type: in vivo, Spodoptera exigua; details: L5 larvae injected with Xh 10^2 cfu/larva along with inhibitor (5 µg/larva Fig. 7A; 2 µg/larva Fig. S6); 4 days after treatment
Protocol: For the virulence test of X. hominickii, 24 h-cultured cells (10^8 cfu/mL) were diluted with sterile PBS. […] Injection was performed through the first abdominal proleg using a micro syringe. Injected larvae were incubated at room temperature individually in 9 cm Petri dishes. For oral toxicity assay of B. thuringiensis, a small piece (2 × 2 cm) of Chinese cabbage was dipped in 500 ppm of Bt or a mixture of Bt (500 ppm) with 500 ppm of test chemical for 5 min. After a brief (5 min) drying under a dark condition, the treated leaf was supplied to individual test larva in 9 cm Petri dish for 24 h at room temperature. After 24 h, larvae were fed with fresh cabbage leaves. Each treatment was replicated three times with 10 larvae per replication. […] Larvae were considered dead if they were unable to move in a coordinated manner when prodded with a blunt probe.

[2] = system: cytosolic PLA2 (cPLA2); test: Cytosolic PLA2 (cPLA2) activity; assay type: biochemical, Spodoptera exigua; details: for Median Inhibitory Concentrations (IC50), cPLA2: S. exigua, synthetic compounds
Protocol: (§1) To characterize PLA2 inhibition by test chemicals, activities of two different PLA2s [secretory PLA2 (sPLA2) and cytosolic PLA2 (cPLA2)] were assessed with methods described by Vatanparast et al..

[3] = system: mammals; details: oral administration; cited from earlier work
[4] = system: S. exigua larvae; test: Insecticidal activity by injection; assay type: in vivo, Spodoptera exigua; details: for Insecticidal Activities, Injection: median lethal dose by Probit analysis, S. exigua larvae
Protocol: All data for continuous variables were subjected to one-way analysis of variance (ANOVA) using PROG GLM in SAS program. Mortality data were subjected to arcsine transformation and used for ANOVA. Means were compared with the least significant difference (LSD) test at Type I error of 0.05. Median toxicity values such as median lethal dose (LD50), median lethal concentration (LC50), median lethal time (LT50), and median inhibition concentrations (IC50) were calculated by Probit analysis using EPA Probit Analysis Program, ver. 1.5 (U.S. Environmental Protection Agency, Washington, DC, USA). […]

[5] = system: hemocyte nodule formation; test: Nodulation assay after E. coli injection in L5 larvae; assay type: in vivo, Spodoptera exigua; details: for Median Inhibitory Concentration (IC50), Nodulation: injected into L5 larvae with E. coli, nodules counted after 8 h
Protocol: To assess nodule formation, immune challenge was performed by injecting 3 µL of Escherichia coli Top10 (10^4 cells/larva) (Invitrogen, Madison, WI, USA) through the abdominal proleg of L5 larvae using a microsyringe (Hamilton, Reno, NV, USA). After incubating at 25 °C for 8 h, test insects were dissected to count the number of melanized nodules under a stereo microscope (Stemi SV11, Zeiss, Jena, Germany) at 50× magnification. For chemical test, 1 µL aliquot of test chemical at different concentrations was injected into each larva along with E. coli. AA was injected at 10 μg per larva. Each treatment was independently replicated five times.

[6] = system: S. exigua larvae; test: Effect on pathogenicity of Bacillus thuringiensis (oral, leaf dipping); assay type: in vivo, Spodoptera exigua; details: cabbage leaf dipped in Bt 500 ppm mixed with inhibitor 500 ppm; 4 days after treatment
Protocol: (§2) For the virulence test of X. hominickii, 24 h-cultured cells (10^8 cfu/mL) were diluted with sterile PBS. After surface sterilization with 95% ethanol, each L5 larva was injected with 1 µL of test compound (1 µg/larva) along with bacterial suspension (10^2 cfu/larva). Injection was performed through the first abdominal proleg using a micro syringe. Injected larvae were incubated at room temperature individually in 9 cm Petri dishes. For oral toxicity assay of B. thuringiensis, a small piece (2 × 2 cm) of Chinese cabbage was dipped in 500 ppm of Bt or a mixture of Bt (500 ppm) with 500 ppm of test chemical for 5 min. After a brief (5 min) drying under a dark condition, the treated leaf was supplied to individual test larva in 9 cm Petri dish for 24 h at room temperature. After 24 h, larvae were fed with fresh cabbage leaves. Each treatment was replicated three times with 10 larvae per replication. […] Larvae were considered dead if they were unable to move in a coordinated manner when prodded with a blunt probe.

[7] = system: Sf9 cells; test: Cytotoxicity test (MTT); assay type: cell-based; details: for Cytotoxicity (MIC, minimum inhibitory concentration): MTT, 24 h at 28 °C
Protocol: Cytotoxicity of each secondary metabolite was evaluated by 3-(4,5 dimethylthiazol-2-yl)-2,5-diphenyl tetrazolium bromide (MTT) assay according to the method described by Mollah et al.. with a slight modification. Briefly, Sf9 cells (1.2 × 10^4 cells in 200 μL of TC-100 medium) were seeded into each 96-well. After adding each test chemical (2.5 μL in DMSO), the plate was incubated at 28 °C for 24 h. Control cells were treated with 2.5 μL of DMSO. After 24 h incubation, 10 μL of MTT (5 mg/mL in PBS) was added to each well and cells were cultured for another 4 h at 28 °C. Formazan granules formed in viable cells were dissolved in 50 μL of DMSO. Absorbance was then measured at 540 nm using a microplate reader (Victor Multilabel Plate Reader, PerkinElmer, Waltham, MA, USA).

[8] = system: hemocyte PLA2 of S. exigua; test: Nonspecific (total) hemocyte PLA2 activity, pyrene-labeled phospholipid fluorometric assay; assay type: biochemical, Spodoptera exigua; details: for Median Inhibitory Concentrations (IC50), Total PLA2: hemocyte extract of S. exigua L5 larvae, synthetic compounds
Protocol: Hemocyte PLA2 activity was fluorometrically determined with a pyrene-labeled phospholipid substrate using a spectrofluorometer (VICTOR multi-label plate reader, PerkinElmer, Waltham, MA, USA) at excitation and emission wavelengths of 345 and 398 nm, respectively. For measuring PLA2 activity, hemolymph was collected from ~10 L5 larvae. Hemocytes and plasma were separated by centrifugation at 800× g for 3 min at 4 °C. Hemocytes were then homogenized in 500 µL of PBS with a polytron (Ultra-Turrax T8, Ika Laboratory, Funkentshort, Germany). After centrifugation at 14,000× g for 5 min at 4 °C, protein concentration of the supernatant was determined by Bradford assay using bovine serum albumin (BSA) as the standard. The reaction mixture was prepared in a 96-well microplate by adding 129 μL of 50 mM Tris buffer (pH 7.0), 2 μL of 1 M CaCl2, and 2 μL of 10% BSA into each well. A sample solution consisted of 5 μL of test bacterial metabolites and 10 μL of hemocyte enzyme extract ([…]). The plate was then incubated at room temperature for 30 min. Enzyme reaction was then initiated by adding pyrene-labeled PL substrate (2 μL) to the reaction mixture.

[9] = system: secretory PLA2 (sPLA2); test: Secretory PLA2 (sPLA2) activity; assay type: biochemical, Spodoptera exigua; details: for Median Inhibitory Concentrations (IC50), sPLA2: S. exigua, synthetic compounds
Protocol: as §1

[10] = system: hemocyte phagocytosis of S. exigua; test: Phagocytosis assay with FITC-labeled E. coli in L5 larvae; assay type: in vivo, Spodoptera exigua; details: for Median Inhibitory Concentration (IC50), Phagocytosis: injected into L5 larvae with FITC-labeled E. coli
Protocol: For in vivo phagocytosis assay, test chemical (1 µL) and FITC-labeled E. coli (5 µL, 5 × 10^4 cells/µL) were injected to L5 larva. Hemolymph (50 µL) was collected at 15 min after injection and mixed with 50 µL of ice cold ACB. After centrifugation at 700 × g for 3 min at 4 °C, the supernatant plasma was replaced with 100 µL of TC-100 insect cell culture medium (Welgene, Daegu, Korea). Hemocyte suspension (10 µL) was placed onto a slide and over laid with 10 µL glycerol (50%, v/v). Hemocytes undergoing phagocytosis were determined by fluorescence-emitting cells under a fluorescence microscope (Leica, Wetzlar, Germany) at 40× magnification. For in vitro phagocytosis, hemocyte suspension and labeled bacteria mixture (30 µL) were incubated in a dark place for 1 h at room temperature. Hemocytes were then washed three times with PBS by centrifugation at 700× g for 2 min at 4 °C and finally resuspended in TC-100 medium. This hemocyte suspension was observed under the fluorescence microscope in FITC or DIC mode after forming monolayers on glass slides.

[11] = system: S. exigua larvae; test: Feeding toxicity, leaf-dipping method; assay type: in vivo, Spodoptera exigua; details: for Insecticidal Activities, Feeding: median lethal concentration by Probit analysis, leaf-dipping
Protocol: as §2
All data for continuous variables were subjected to one-way analysis of variance (ANOVA) using PROG GLM in SAS program. Mortality data were subjected to arcsine transformation and used for ANOVA. Means were compared with the least significant difference (LSD) test at Type I error of 0.05. Median toxicity values such as median lethal dose (LD50), median lethal concentration (LC50), median lethal time (LT50), and median inhibition concentrations (IC50) were calculated by Probit analysis using EPA Probit Analysis Program, ver. 1.5 (U.S. Environmental Protection Agency, Washington, DC, USA).
These compounds were also tested for their feeding toxicities using a leaf-dipping method.

[12] = system: rats; details: cited from earlier work
[13] = system: rabbits; details: cited from earlier work
[14] = target: mushroom tyrosinase; parameters: method as in PMID 14714727; details: cited from earlier work
[15] = reference not printed with the value, next sentence cites ref 48

SMILES	Median Inhibitory Concentrations (IC50), cPLA2 [2]	Insecticidal Activities, Injection [4]	Median Inhibitory Concentration (IC50), Nodulation [5]	Cytotoxicity (MIC, minimum inhibitory concentration) [7]	Median Inhibitory Concentrations (IC50), Total PLA2 [8]	Median Inhibitory Concentrations (IC50), sPLA2 [9]	Median Inhibitory Concentration (IC50), Phagocytosis [10]	Insecticidal Activities, Feeding [11]	further results
O=C1NC(=O)c2ccccc21 [PM, phthalimide]	0.04 ± 0.003 f µg/mL	22.11 ± 2.69 d µg/larva	0.20 ± 0.02 f ng/larva	0.1 ± 0.01 f µg/mL	0.05 ± 0.007 e µg/mL	0.17 ± 0.01 µg·days/mL	0.40 ± 0.05f ng/larva	2150.66 ± 50.07 f µg/mL	Effect on X. hominickii pathogenicity / insecticidal activity [1]: significantly (p < 0.05) increased; Potency for inhibiting cPLA2 (in words) ([2]; based on IC50 values): highly potent; Acute mammalian toxicity LD50 [3]: > 5000 mg/kg; Killing of larvae after injection (in words) ([4]; individually injected to S. exigua larvae): most potent; Inhibition of nodule formation (in words) ([5]; S. exigua L5 larvae, E. coli challenge): high potency; Effect on B. thuringiensis insecticidal activity [6]: significantly (p < 0.05) increased; Concentration inducing cytotoxicity [7]: less than 1 µg/mL; Inhibitory activity against hemocyte PLA2 (in words) ([8]; S. exigua hemocyte PLA2, extracts, fractions or synthetic compounds): most potent; Inhibition of phagocytosis (in words) ([10]; S. exigua hemocytes): highly potent; Feeding (oral) toxicity (in words) ([11]; leaf-dipping method): most potent
CCCCNCCCC [DBA, dibutylamine]	0.19 ± 0.02 c µg/mL	38.77 ± 3.26 b µg/larva	0.71 ± 0.05 d ng/larva	0.80 ± 0.03 b µg/mL	0.18 ± 0.02 c µg/mL	0.11 ± 0.02 de µg/mL	5.0 ± 0.58 c ng/larva	2969.46 ± 50.56 c µg/mL	Acute oral toxicity (LD50) [12, 15]: 1890 mg/kg; Acute dermal toxicity (LD50) [13, 15]: 7680 mg/kg
CCCCC(CC)COC(=O)c1ccccc1C(=O)OCC(CC)CCCC (centres unmarked) [BEP, bis(2-ethylhexyl) phthalate]	0.09 ± 0.01 µg·days/mL	34.88 ± 2.08 bc µg/larva	1.0 ± 0.11 c ng/larva	0.30 ± 0.01 d ^3 µg/mL	0.17 ± 0.01 cd ^2 µg/mL	0.07 ± 0.01 ef µg/mL	1.50 ± 0.22 d ^2 ng/larva	2679.58 ± 60.58 µg·days/mL	Potency for inhibiting sPLA2 (in words) ([9]; based on IC50 values): highly potent; Acute toxicity, oral ([12]; oral administration): 30 g/kg; Acute toxicity, dermal ([13]; dermal application): 24 g/kg
N#Cc1ccc(C(=O)O)cc1 [4-cyanobenzoic acid]	–	–	–	–	–	–	–	–	IC50 ([14]; diphenolase activity of mushroom tyrosinase, read-out: IC50 for diphenolase): 1400 µM; IC50 ([14]; monophenolase activity of mushroom tyrosinase, read-out: IC50 for monophenolase): 2450 µM
